Experimental data as given in patent publication US12655116B2, “Substituted isophthalic acid diamides” (Bayer Aktiengesellschaft, priority 2020, dated 2026).

Key:
ECHCG = assay: Post-emergence herbicidal action against ECHCG; assay type: in vivo, Echinochloa crus-galli; settings: Echinochloa crus-galli, 504 h; for pest or weed control at 20 g/ha: dosage 20 g/ha; for pest or weed control at 80 g/ha: dosage 80 g/ha; for pest or weed control at 5 g/ha: dosage 5 g/ha
Method in brief: (§1)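 Herbicidal effect was scored visually in percent after about 3 weeks in the greenhouse. Plants had been raised in sandy loam and treated post-emergence at the one-leaf stage with formulated compound at 600 to 800 l/ha water plus 0.2% wetting agent.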

MATIN = assay: Pre-emergence herbicidal action against MATIN; assay type: in vivo, Matricaria inodora; settings: Tripleurospermum inodorum, 504 h; for pest or weed control at 80 g/ha: dosage 80 g/ha; for pest or weed control at 320 g/ha: dosage 320 g/ha; for pest or weed control at 20 g/ha: dosage 20 g/ha
Method in brief: (§2)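 Herbicidal effect was assessed 3 weeks after treatment by visual comparison with untreated controls, 100% denoting dead plants. Aqueous WP or EC preparations had been applied at 600 to 800 l/ha with 0.2% wetting agent to the soil covering freshly sown seeds.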

DIGSA [1] = assay: Post-emergence herbicidal action against DIGSA; assay type: in vivo, Digitaria sanguinalis; settings: Digitaria sanguinalis, 504 h
Method in brief: as §1

DIGSA [2] = assay: Pre-emergence herbicidal action against DIGSA; assay type: in vivo, Digitaria sanguinalis; settings: Digitaria sanguinalis, 504 h; for pest or weed control at 80 g/ha: dosage 80 g/ha; for pest or weed control at 320 g/ha: dosage 320 g/ha; for pest or weed control at 20 g/ha: dosage 20 g/ha
Method in brief: as §2

AVEFA = assay: Post-emergence herbicidal action against AVEFA; assay type: in vivo, Avena fatua; settings: Avena fatua, 504 h, visual assessment about 3 weeks after treatment, 100% = plants have died, 0% = like control plants
Method in brief: as §1

VERPE = assay: Pre-emergence herbicidal action against VERPE; assay type: in vivo, Veronica persica; settings: Veronica persica, 504 h; for pest or weed control at 320 g/ha: dosage 320 g/ha; for pest or weed control at 80 g/ha: dosage 80 g/ha; for pest or weed control at 20 g/ha: dosage 20 g/ha
Method in brief: as §2

POLCO = assay: Post-emergence herbicidal action against POLCO; assay type: in vivo, Polygonum convolvulus; settings: Fallopia convolvulus, 504 h; for pest or weed control at 80 g/ha: dosage 80 g/ha; for pest or weed control at 20 g/ha: dosage 20 g/ha
Method in brief: as §1

harmful plants = assay: Comparative experiments: herbicidal post-emergence action versus compounds known from D1 (WO 2012/028579 A1); assay type: in vivo; design: key to Herbicidal action against ALOMY / Herbicidal action against AVEFA / Herbicidal action against LOLRI / Herbicidal action against MATIN / Herbicidal action against HORMU / Herbicidal action against ECHCG / Herbicidal action against SETVI / Herbicidal action against ABUTH / Herbicidal action against STEME / Herbicidal action against VIOTR / Herbicidal action against AMARE: % herbicidal action: 100 = plants died, 0 = like untreated control; settings: 20 g a.i./ha
Procedure: Seeds of monocotyledonous and dicotyledonous weed and crop plants are laid out in sandy loam soil in wood-fiber pots, covered with soil and cultivated in a greenhouse under good growth conditions. 2 to 3 weeks after sowing, the test plants are treated at the one-leaf stage. The compounds of the invention, formulated in the form of wettable powders (WP) or as emulsion concentrates (EC), are then sprayed onto the green parts of the plants in the form of an aqueous suspension or emulsion at a water application rate equivalent to 600 to 800 l/ha, with addition of 0.2% wetting agent. After the test plants have been left to stand in the greenhouse under optimal growth conditions for about 3 weeks, the action of the preparations is assessed visually in comparison to untreated controls (herbicidal action in percent (%): 100% activity=the plants have died, 0% activity=like control plants). […] The tables below illustrate, in an illustrative manner, the post-emergence herbicidal action of the compounds of the invention, the herbicidal activity being stated in percent. In the experiments that follow, herbicidal action of numerous inventive compounds and the structurally closest compounds known from D1 (WO 2012/028579 A1) were compared under the above-specified conditions by the pre-emergence and post-emergence method. The example numbers given in the tables relate to the compounds disclosed in the respective documents.

PHBPU = assay: Pre-emergence herbicidal action against PHBPU; assay type: in vivo, Pharbitis purpurea; settings: Ipomoea purpurea, 504 h; for pest or weed control at 80 g/ha: dosage 80 g/ha
Method in brief: as §2

Row | Compound | pest or weed control at 20 g/ha (ECHCG) | pest or weed control at 80 g/ha (ECHCG) | pest or weed control at 80 g/ha (MATIN) | pest or weed control at 320 g/ha (MATIN) | pest or weed control at 20 g/ha (DIGSA [1]) | pest or weed control at 80 g/ha (DIGSA [1]) | pest or weed control at 80 g/ha (DIGSA [2]) | pest or weed control at 320 g/ha (DIGSA [2]) | pest or weed control at 80 g/ha (AVEFA) | pest or weed control at 320 g/ha (VERPE) | pest or weed control at 80 g/ha (POLCO) | pest or weed control at 20 g/ha (AVEFA) | pest or weed control at 80 g/ha (VERPE) | pest or weed control at 20 g/ha (MATIN) | pest or weed control at 20 g/ha (DIGSA [2]) | other results
1 | CNC(=O)c1c(C(F)(F)F)ccc(C(=O)Nc2nnnn2C)c1SC [Example 1-81] | 80% | 90% | 100% | 100% | 80% | 90% | 100% | 100% | 90% | 100% | 90% | – | – | – | – | –
2 | CNC(=O)c1c(C(F)F)ccc(C(=O)Nc2nnnn2C)c1Cl [Example 1-147] | 90% | 90% | 90% | 100% | 90% | 90% | 100% | 100% | 90% | 90% | 90% | 90% | – | – | – | Herbicidal action against ALOMY (harmful plants): 80; Herbicidal action against AVEFA (harmful plants): 90; Herbicidal action against MATIN (harmful plants): 100; Herbicidal action against PHBPU (harmful plants): 80; Herbicidal action against POLCO (harmful plants; POLCO): 90; Herbicidal action against VIOTR (harmful plants; VIOTR): 70; pest or weed control at 20 g/ha (POLCO): 90%
3 | CCNC(=O)c1c(C(F)F)ccc(C(=O)Nc2nnnn2C)c1Cl [Example 1-148] | 80% | 80% | 100% | 100% | 90% | 90% | 100% | 100% | 100% | 100% | 80% | 100% | 80% | – | – | –
4 | CCc1c(C(=O)Nc2nnnn2C)ccc(C(F)(F)F)c1C(=O)NC1CC1 [Example 1-273] | 90% | – | 100% | – | 90% | – | 100% | – | – | – | – | 90% | 90% | 100% | 100% | pest or weed control at 5 g/ha (ECHCG): 80%; pest or weed control at 5 g/ha (DIGSA [1]): 90%; pest or weed control at 80 g/ha (PHBPU): 100%
5 | CCn1nnnc1NC(=O)c1ccc(C(F)(F)F)c(C(=O)NC2CC2)c1C [Example 2-27] | 100% | – | 100% | – | 100% | – | 100% | – | – | – | – | 100% | 100% | 100% | 100% | pest or weed control at 5 g/ha (ECHCG): 80%; pest or weed control at 5 g/ha (DIGSA [1]): 100%; pest or weed control at 20 g/ha (PHBPU; dosage 20 g/ha): 80%; pest or weed control at 80 g/ha (PHBPU): 90%; pest or weed control at 5 g/ha (AVEFA; 5 g/ha): 90%; pest or weed control at 20 g/ha (VERPE): 80%
6 | CCn1nnnc1NC(=O)c1ccc(C(F)(F)F)c(C(=O)NC)c1SC [Example 2-81] | 90% | 90% | 100% | 100% | 90% | 90% | 100% | 100% | 100% | 90% | 80% | 90% | 90% | – | – | –
7 | CCNC(=O)c1c(C(F)(F)F)ccc(C(=O)Nc2nnnn2CC)c1SC [Example 2-82] | 80% | 80% | 100% | 100% | 90% | 90% | 100% | 100% | 90% | 90% | 80% | 90% | – | – | – | –
8 | CCn1nnnc1NC(=O)c1ccc(C(F)F)c(C(=O)NC)c1Cl [Example 2-147] | 90% | 90% | 100% | 100% | 90% | 90% | 100% | 100% | 100% | 90% | 80% | 90% | – | – | – | Herbicidal action against ALOMY (harmful plants): 80; Herbicidal action against AVEFA (harmful plants): 90; Herbicidal action against HORMU (harmful plants; HORMU): 80; Herbicidal action against LOLRI (harmful plants; LOLRI): 70; Herbicidal action against MATIN (harmful plants): 100; Herbicidal action against PHBPU (harmful plants): 70
9 | CCNC(=O)c1c(C(F)F)ccc(C(=O)Nc2nnnn2CC)c1Cl [Example 2-148] | 80% | 90% | 100% | 100% | 90% | 90% | 100% | 100% | 90% | 100% | 90% | 90% | 80% | – | – | pest or weed control at 20 g/ha (POLCO): 90%
10 | CCn1nnnc1NC(=O)c1ccc(Cl)c(C(=O)NC2CC2)c1Cl [Example 2-173] | 90% | – | 100% | – | 80% | – | 100% | – | – | – | – | 100% | 80% | 100% | 100% | pest or weed control at 5 g/ha (ECHCG): 80%; pest or weed control at 80 g/ha (PHBPU): 90%; pest or weed control at 20 g/ha (POLCO): 90%
11 | CCn1nnnc1NC(=O)c1ccc(C(F)(F)F)c(C(=O)NC(C)=O)c1Cl [Example 2-337] | – | 90% | 100% | 100% | – | 90% | 100% | 100% | 90% | 90% | – | – | 90% | 80% | 90% | pest or weed control at 320 g/ha (PHBPU; dosage 320 g/ha): 90%; pest or weed control at 20 g/ha (VERPE): 80%
